These results are taken from patent publication US12121500B2, “Inhibitors of Bunyaviridae and uses thereof” (priority 2020, dated 2024).

As usually defined, the EC50 is the midpoint of the concentration-response curve. The IC50 is the point on the concentration scale where inhibition reaches its midpoint. By MIC80 is commonly meant the lowest concentration that inhibits either 80% of growth or 80% of the strains tested, depending on the study.

One data set has as its system RVFV strain MP12. The data set is described as follows: microbe, parasite or virus in culture. It counts as cell-based, Rift Valley Fever Virus. The following applies: read-out: Estimated EC50.
Data set [1] relates to RVFV. The data set is described as follows: microbe, parasite or virus in culture. In kind it is cell-based, Rift Valley Fever Virus.
A further data set addresses T1, human ribonuclease H1 (Homo sapiens, UniProt O60930).
T1 construct: made in house; host or cells: E. coli
T1 sequence (O60930 1-286): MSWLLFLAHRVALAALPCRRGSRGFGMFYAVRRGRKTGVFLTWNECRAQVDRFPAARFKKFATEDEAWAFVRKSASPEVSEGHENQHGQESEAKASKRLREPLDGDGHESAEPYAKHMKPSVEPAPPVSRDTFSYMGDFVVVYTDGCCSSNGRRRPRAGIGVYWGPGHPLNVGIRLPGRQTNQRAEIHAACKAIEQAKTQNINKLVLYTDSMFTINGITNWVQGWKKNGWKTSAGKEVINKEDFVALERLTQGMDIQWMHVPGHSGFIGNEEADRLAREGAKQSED
The data set is described as follows: biochemical. The settings on record: read-out: Human RNaseH1 (IC50). It counts as biochemical.

Another data set has as its system Staphylococcus spp. The data set can be described thus: Inhibition of Staphylococcus spp. growth, broth microdilution. In kind it is cell-based, S. saprophyticus or S. aureus. The settings on record: 16-24 hours, Mueller-Hinton broth, — = no measurable MIC80. (Dilution methods test growth across graded concentrations, often in twofold steps.)
The test system of another data set is C. neoformans. The data set is described as follows: Inhibition of C. neoformans growth, limiting dilution assay. In kind it is cell-based, Cryptococcus neoformans. The settings on record: 48 hours at 35° C., YNB-02; for MIC80: Cryptococcus neoformans, read-out: C. neoformans (MIC80).
Data set [2] concerns RVFV. The data set is described as follows: microbe, parasite or virus in culture. The settings on record: read-out: EC50. In kind it is cell-based, Rift Valley Fever Virus.
Data set [3] relates to Vero cells.
For another data set, the system named is HepDES19. The data set can be described thus: Cytotoxicity in HepDES19 cells, MTS assay. The settings on record: read-out: CC50 HepDES19; HepDES19 cells, 3 days, MTS; * marks limit value. In general terms: Formazan colour is commonly taken as a measure of viable cells.
Data set [4] concerns Vero cells. The data set is described as follows: Quantitative cytotoxicity in Vero cells, crystal violet staining of EC50 plates. The following applies: read-out: CC50 Vero, 1 day of compound exposure, crystal violet, * marks limit values.
In another data set the test system is Escherichia coli. The data set can be described thus: Inhibition of Escherichia coli growth, broth microdilution. It counts as cell-based. The settings on record: 16-24 hours, Mueller-Hinton broth, — = inactive.
A short description of data set [5]: Quantitative cytotoxicity in Vero cells, crystal violet staining of EC50 plates. The settings on record: African green monkey.
Another data set can be described thus: in vitro. The settings on record: African green monkey.
Where [6] appears, read: Rift Valley fever virus, Vero, 24 h, read-out: RVFV (EC50, μM).

Molecules are shown by their SMILES. ≈ marks a conversion by molar mass, not a printed value. Where two headings read alike, the source gives them in different places.

In the case of `CC[C@H](C)[C@H](NC(=O)OCC1c2ccccc2-c2ccccc21)C(=O)Sc1cccccc1=O` [Compound 686], the EC50 in the data set with RVFV strain MP12 was 2 µM; with RVFV [1] (read-out: RVFV (EC50)), greater than 120 µM; in the data set with RVFV [2], 7.87 µM. Besides, on human ribonuclease H1, the IC50 was greater than 500 µM. In addition, the “Staphylococcus spp. (MIC80, μM)” value in the data set on Staphylococcus spp. amounted to 30 µM. The “C. neoformans (MIC80, μM)” value in the data set on C. neoformans is 0.85 µM. Besides, the CC50 in the data set with Vero cells [3] was no less than 120 µM; in the data set on A549 cells, 67.6 µM; with HepDES19, 42.6 µM; with Vero cells [4], greater than 120 µM.
For `Cc1cc(O)c(=O)c(O)c(O)c1C(=O)c1ccc(-c2ccccc2)cc1` [Compound 362], the EC50 is 6 µM with RVFV strain MP12 (Rift Valley fever virus, Vero) and 2.6 µM with RVFV [1] (setting [6]). For the same molecule, the IC50 at human ribonuclease H1 stood at 212 µM. In addition, the “E. coli (MIC80, μM)” value in the data set on Escherichia coli is “inactive”. Moreover, the MIC80 with C. neoformans is 24 µM (≈ 8.36 µg/mL). Also, in the data set on HepDES19, the CC50 came to 5.4 µM. The same molecule yielded a CC50 at 1 day in data set [5] of 77.8 µM.
Consider `O=C(Cc1ccccc1)Sc1cccccc1=O` [Compound 680], for which the figures for the EC50 in the data set on RVFV strain MP12, in the data set with RVFV [1] (read-out: RVFV (EC50)) and in the data set on RVFV [2] were 0.3 µM, greater than 120 µM and 11.6 µM, respectively. Also, the IC50 at human ribonuclease H1 was determined as 652 µM. In the data set on Staphylococcus spp., the “Staphylococcus spp. (MIC80, μM)” value was found to be 13 µM. Besides, in the data set on Escherichia coli, the “E. coli (MIC80, μM)” value was 30 µM. In the data set with C. neoformans, the “C. neoformans (MIC80, μM)” value turned out to be 0.40 µM. Also, the CC50 in the data set on Vero cells [3] is 0.9 µM; in the data set on A549 cells it was no less than 120 µM; in the data set with HepDES19 it was 95.6 µM; in the data set on Vero cells [4], greater than 120 µM.
Turning to `CC(C)Sc1ccc(SC(C)C)c(O)c(=O)c1O` [Compound 696], the EC50 in the data set with RVFV strain MP12 (Rift Valley fever virus, Vero) is 12 µM; in the data set with RVFV [1] (setting [6]), 6 µM. Besides, the MIC80 in the data set with Staphylococcus spp. (Staphylococcus) was 13 µM (≈ 3.72 µg/mL); in the data set on Escherichia coli (Escherichia coli, read-out: E. coli (MIC80)), 20 µM (≈ 5.73 µg/mL); with C. neoformans, 1.5 µM (≈ 0.43 µg/mL). Also, the CC50 was found to be 118 µM in “in vitro” and 14.1 µM in the data set with HepDES19. In [5], this molecule came in with a CC50 at 1 day of 56.5 µM.
With `Cc1ccc(/C=C/C(=O)c2ccccc(=O)c2O)cc1` [Compound 340], the concentration for a half-maximal effect (EC50) with RVFV strain MP12 was 3 µM; in the data set on RVFV [1] (read-out: RVFV (EC50)), 27.3 µM. At human ribonuclease H1, the IC50 is greater than 500 µM. In addition, the “C. neoformans (MIC80, μM)” value with C. neoformans was 49 µM. For the same molecule, the CC50 in the data set with HepDES19 amounted to 18.7 µM; in the data set on Vero cells [4], 70 µM.
Consider `CCc1cccc(N=C(C)c2c(C)cc(=O)n(O)c2O)c1` [Compound 518], for which the EC50 is 7 µM in the data set with RVFV strain MP12, 20 µM with RVFV [1] (read-out: RVFV (EC50)) and 17.2 µM in the data set on RVFV [2]. Besides, at human ribonuclease H1, the IC50 stood at 436 µM. For the same molecule, the “Staphylococcus spp. (MIC80, μM)” value in the data set on Staphylococcus spp. came to 67 µM. In addition, the “C. neoformans (MIC80, μM)” value in the data set on C. neoformans was 24 µM. For the same molecule, the CC50 in the data set with Vero cells [3] was no less than 120 µM; with A549 cells it was 16.5 µM; in the data set with HepDES19, 91.4 µM; in the data set with Vero cells [4] it was greater than 120 µM.
